Experimental data as given in US8993595B2, “Macrocyclic serine protease inhibitors” (priority 2009, dated 2015).

Legend:
[1] = biological target: T1, HCV NS3-4A Protease Genotype 2a (Hepatitis C virus genotype 2a, UniProt Q99IB8); assay: HCV protease assay, recombinant NS3-4A genotype 2a; format: biochemical; conditions: mean ± SD, 3 experiments
T1 construct: recombinant HCV NS3-4A proteases
Experimental: The compounds were tested at a variety of concentrations in assay buffer containing a final DMSO concentration of 5%. Reactions were allowed to proceed for 60 min at room temperature and fluorescence measurements were recorded with a Tecan Infinity Spectrofluorimeter. The IC50 values were determined from the percent inhibition versus concentration data using a sigmoidal non-linear regression analysis based on four parameters with Tecan Magellan software.
Compound 52 was tested against genotypes 1a, 1b, 2a, 3a, and 4a of recombinant HCV NS3-4A proteases, along with other cellular proteases.

[2] = test system: HCV Con1 subgenomic replicon in Huh-7 cells (GS4.1 cells); assay: HCV Replicon Assay (NS4A ELISA); format: cell-based; conditions: Hepatitis C virus, 72 hr
Experimental: Huh-7 cells containing HCV Con1 subgenomic replicon (GS4.1 cells) were grown in Dulbecco's Modified Eagle Medium (DMEM) supplemented with 10% fetal bovine serum (FBS), 2 mM L-glutamine, 110 mg/L sodium pyruvate, 1× non-essential amino acids, 100 U/mL penicillin-streptomycin, and 0.5 mg/mL G418 (Invitrogen). For dose-response testing, the cells were seeded in 96-well plates at 7.5×10^3 cells/well in a volume of 50 μL, and incubated at 37° C./5% CO2. Three hours after plating, 50 μL of ten 2-fold serial dilutions of compounds (highest concentration, 75 μM) were added, and cell cultures were incubated at 37° C./5% CO2 in the presence of 0.5% DMSO. Alternatively, compounds were tested at a single concentration of 15 μM. In all cases, Huh-7 cells lacking the HCV replicon served as negative control. The cells were incubated in the presence of compounds for 72 hr after which they were monitored for expression of the NS4A protein by enzyme-linked immunosorbent assay (ELISA). For this, the plates were then fixed for 1 min with acetone/methanol (1:1, v/v), washed twice with phosphate-buffered saline (PBS), 0.1% Tween 20, blocked for 1 hr at room temperature with TNE buffer containing 10% FBS and then incubated for 2 hr at 37° C. with the anti-NS4A mouse monoclonal antibody A-236 (ViroGen) diluted in the same buffer. After washing three times with PBS, 0.1% Tween 20, the cells were incubated 1 hr at 37° C. with anti-mouse immunoglobulin G-peroxidase conjugate in TNE, 10% FBS. After washing as described above, the reaction was developed with O-phenylenediamine (Zymed). The reaction was stopped after 30 min with 2 N H2SO4, and absorbance was read at 492 nm using Sunrise Tecan spectrophotometer. EC50 values were determined from the % inhibition versus concentration data using a sigmoidal non-linear regression analysis based on four parameters with Tecan Magellan software.

[3] = in vivo; conditions: for Mean concentration, Heart / Mean concentration, Liver / Mean concentration, Plasma / Kp: single 2 mg/kg oral dose; for AUC(0-inf) / C24 h / F / AUC(0-t) / Vd / clearance / half-life / Cmax / Tmax / Kp: 2 mg/kg
Experimental: Male mice (3/time point) and monkeys (3/dose group) were given a single IV or PO dose of compound 52 in a PEG-based vehicle. The compound was quantified in liver (LLOQ=25 ng/g) and heart (LLOQ=50 ng/g) tissue (mice only) and in plasma samples (LLOQ=5 ng/mL) after liquid-liquid extraction by HPLC-MS/MS. Six healthy volunteers were given a single 200 mg dose of the compound using the selected tablet formulation and plasma concentrations were similarly determined (LLOQ=2 ng/mL). PK parameters were calculated using WinNonlin.

[4] = biological target: T2, hERG channel (Homo sapiens, UniProt Q12809); assay: hERG channel currents in voltage-clamped HEK293 cells; format: cell-based
T2 construct: expressed in transfected cells; host or cells: HEK293
Text: One in vitro GLP safety pharmacology study evaluated the effects of compound 52 on hERG channel currents in voltage-clamped human embryonic kidney cells (HEK293) stably expressing the human ether-à-go-go-related gene (hERG) channel. Four in vivo GLP safety pharmacology studies evaluated the potential effects of the compound on the cardiovascular and respiratory systems in the cynomolgus monkey and on the central nervous, renal, and gastrointestinal systems in the CD-1 mouse at single oral doses up to 250 mg/kg of compound 52.

T1 sequence (Q99IB8 1031-1661): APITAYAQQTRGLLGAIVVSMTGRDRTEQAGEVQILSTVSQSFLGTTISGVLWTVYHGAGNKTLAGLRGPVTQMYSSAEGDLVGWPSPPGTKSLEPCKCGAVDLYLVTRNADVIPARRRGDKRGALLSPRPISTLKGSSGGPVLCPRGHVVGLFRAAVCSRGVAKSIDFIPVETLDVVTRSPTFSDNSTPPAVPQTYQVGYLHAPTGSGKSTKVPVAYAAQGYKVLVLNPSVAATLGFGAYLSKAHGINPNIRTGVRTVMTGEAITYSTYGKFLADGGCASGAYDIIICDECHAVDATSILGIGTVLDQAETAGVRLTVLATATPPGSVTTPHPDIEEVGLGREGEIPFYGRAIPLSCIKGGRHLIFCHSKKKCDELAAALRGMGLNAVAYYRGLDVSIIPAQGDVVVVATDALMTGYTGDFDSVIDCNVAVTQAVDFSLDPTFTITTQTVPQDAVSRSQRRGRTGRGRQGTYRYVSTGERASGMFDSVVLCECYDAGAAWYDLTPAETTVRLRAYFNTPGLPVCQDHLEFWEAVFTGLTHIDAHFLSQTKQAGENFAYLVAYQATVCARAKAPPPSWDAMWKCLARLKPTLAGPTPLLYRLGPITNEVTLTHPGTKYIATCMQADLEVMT
T1 sequence (Q99IB8 1662-1715): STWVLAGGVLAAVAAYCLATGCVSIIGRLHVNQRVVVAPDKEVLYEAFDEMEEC
T2 sequence (Q12809 whole entry): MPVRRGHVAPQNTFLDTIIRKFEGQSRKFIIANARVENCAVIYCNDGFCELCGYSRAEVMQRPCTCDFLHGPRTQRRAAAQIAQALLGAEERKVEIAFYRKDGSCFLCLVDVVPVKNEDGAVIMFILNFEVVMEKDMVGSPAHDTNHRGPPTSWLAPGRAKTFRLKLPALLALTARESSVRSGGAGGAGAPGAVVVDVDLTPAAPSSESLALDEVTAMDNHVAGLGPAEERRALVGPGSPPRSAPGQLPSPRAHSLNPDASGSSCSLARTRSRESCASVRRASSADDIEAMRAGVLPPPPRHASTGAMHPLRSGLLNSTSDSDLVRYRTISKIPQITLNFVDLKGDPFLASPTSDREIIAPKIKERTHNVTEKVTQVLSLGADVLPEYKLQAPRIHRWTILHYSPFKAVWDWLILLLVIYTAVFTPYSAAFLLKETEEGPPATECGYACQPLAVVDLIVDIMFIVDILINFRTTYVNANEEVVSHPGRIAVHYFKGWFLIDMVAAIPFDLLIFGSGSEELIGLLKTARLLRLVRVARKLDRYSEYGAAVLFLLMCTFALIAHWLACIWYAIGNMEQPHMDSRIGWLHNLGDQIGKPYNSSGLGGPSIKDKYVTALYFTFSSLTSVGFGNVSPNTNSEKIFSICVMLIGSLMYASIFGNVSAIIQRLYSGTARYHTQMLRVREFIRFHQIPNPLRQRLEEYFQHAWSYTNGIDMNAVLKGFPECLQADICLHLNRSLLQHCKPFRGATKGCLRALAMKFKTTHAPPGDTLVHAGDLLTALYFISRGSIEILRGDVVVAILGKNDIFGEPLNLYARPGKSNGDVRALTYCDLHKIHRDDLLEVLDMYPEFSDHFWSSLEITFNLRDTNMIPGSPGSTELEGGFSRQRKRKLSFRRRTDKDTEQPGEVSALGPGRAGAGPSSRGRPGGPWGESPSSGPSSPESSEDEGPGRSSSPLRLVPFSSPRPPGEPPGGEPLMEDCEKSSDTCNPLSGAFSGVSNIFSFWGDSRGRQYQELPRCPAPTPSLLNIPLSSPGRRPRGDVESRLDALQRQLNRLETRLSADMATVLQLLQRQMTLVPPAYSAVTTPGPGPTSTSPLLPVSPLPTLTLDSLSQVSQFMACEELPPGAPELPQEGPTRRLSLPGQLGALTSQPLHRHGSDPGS

## COc1ccc2c(O[C@H]3CCN4C(=O)N(C)CCCC/C=C\[C@@H]5C[C@@]5(C(=O)NS(=O)(=O)C5(C)CC5)NC(=O)[C@@H]4C3)cc(-c3nc(C(F)(F)F)cs3)nc2c1C [Compound 52, 1-methyl-cyclopropanesulfonic acid{(Z)-(1S,4R,6S,18S)-18-[7-methoxy-8-methyl-2-(4-trifluoromethyl-thiazol-2-yl)-quinolin-4-yloxy]-13-methyl-2,14-dioxo-3,13,15-triaza-tricyclo[13.4.0.0*4,6*]nonadec-7-ene-4-carbonyl}amide]
[1]
  IC50: 1.9 ± 0.5 nM
[2]
  EC50: < 1000 nM
[3]; 2 hr
  Mean concentration, Heart: 144 ng/g
  Mean concentration, Liver: 4410 ng/g
  Mean concentration, Plasma: 174 ng/mL
[3]; 6 hr
  Mean concentration, Heart: 93.0 ng/g
  Mean concentration, Liver: 3540 ng/g
  Mean concentration, Plasma: 121 ng/mL
[3]; 24 hr
  Mean concentration, Liver: 57.6 ng/g
  Mean concentration, Plasma: 1.45 ng/mL
[3]; 24 hr, BLQ = below 50 ng/g
  Mean concentration, Heart: BLQ^2
[3]; cynomolgus monkey, po
  AUC(0-inf): 8920 ± 2190 ng·h/mL
  C24 h: 81 ± 47 ng/mL
  F: 107 ± 40%
[3]; male, CD-1, mouse, in vivo, iv
  AUC(0-t): 4060 ng·h/mL
  C24 h: 7.9 ± 11 ng/mL
  Vd: 4.4 L/kg
  clearance: 8 mL/min/kg
  half-life: 6.3 h
[3]; male, CD-1, mouse, in vivo, po
  AUC(0-t): 1410 ng·h/mL
  C24 h: 1.5 ± 0.3 ng/mL
  Cmax: 174 ng/mL
  F: 34.7%
  Tmax: 2 h
[3]; male, CD-1, mouse, in vivo, po, Mean concentration ratio Heart/Plasma, 2 hr
  Kp: 0.79
[3]; male, CD-1, mouse, in vivo, po, Mean concentration ratio Heart/Plasma, 6 hr
  Kp: 0.78
[3]; male, CD-1, mouse, in vivo, po, Mean concentration ratio Liver/Plasma, 2 hr
  Kp: 27
[3]; male, CD-1, mouse, in vivo, po, Mean concentration ratio Liver/Plasma, 6 hr
  Kp: 30
[3]; male, CD-1, mouse, in vivo, po, Mean concentration ratio Liver/Plasma, 24 hr
  Kp: 39
[3]; male, cynomolgus monkey, iv
  AUC(0-inf): 9580 ± 1420 ng·h/mL
  C24 h: 66 ± 26 ng/mL
  Vd: 3.5 ± 0.5 L/kg
  clearance: 3.83 mL/min/kg
  half-life: 10.3 ± 1 h
[3]; male, cynomolgus monkey, po
  Cmax: 1030 ± 270 ng/mL
  Tmax: 1 h
  half-life: 7.6 ± 2 h
[3]; mouse
  clearance relative to hepatic blood flow: −9 % of hepatic blood flow
[4]
  effect on cardiac hERG potassium channel current: did not affect
